{"source": "patent US10851067B2", "about": "“Kv7 channel activators compositions and methods of use” (Knopp Biosciences LLC, priority 2018, dated 2020)", "data": [{"target": "Kv7.2/7.3 (Homo sapiens, UniProt O43525+O43526)", "test": "Kv7.2/7.3 Activation Assay, QPatch single concentration screen", "format": "cell-based", "set-up": "host or cells: HEK cells, tetracycline-inducible expression; key: 1.2-2.9 (+); 3-3.9 (++); >4 (+++) fold increase over baseline; O represents open channel at holding potential", "settings": "Kv7.2/Kv7.3 co-expressing HEK cells, compound concentration 3 μM, steady-state current at end of 2 s pulse to −30 mV", "protocol": "Kv7.2/7.3 Activation Assay\nThe ability of compounds to potentiate K-currents in Kv7.2/7.3 containing HEK cells was assessed using planar patch-clamp on the QPatch automated screening platform.\nThe hKv7.2/7.3 cell line was obtained from Chantest (Cleveland, Ohio 44128) cat. #CT6147. These HEK cells will express the Kv7.2/7.3 ion channels when induced.\nCells were maintained in a media containing DMEM/F12; 50/50 (GIBCO cat. #11330), 10% Fetal Bovine Serum (FBS) (GIBCO cat. #26140), 100 units/mL Penicillin-Streptomycin (GIBCO cat. #15140), 0.005 mg/mL Blasticidin (INVIVOGEN cat. #ant-b1-1), 0.5 mg/mL Geneticin (GIBCO cat. #10131), 0.1 mg/mL Zeocin (GIBCO cat. #R25001). Cells used in the electrophysiology assay were maintained in a media without Blasticidin, Geneticin and Zeocin for 2 days and channel expression was induced by adding tetracycline (BIOLINE cat. #BIO-87030) at a final concentration of 1 mg/mL. Cells were grown in T-175 flask to ˜75% confluency. Currents were recorded 24 hours after channel induction.\nTest compounds were prepared by performing serial dilutions on a Biomek NX^P (BECKMAN COULTER). Final dilutions were made in external recording solution with a final DMSO concentration of 0.1% DMSO. For single concentration screens each plate had 10 μM retigabine as a positive control and 0.1% DMSO as a negative control.\nOn the day of the experiment cells were washed with Hank's Balanced Salt Solution (HBBS) (GIBCO cat. #14175) and harvested with Tryple (GIBCO cat. #12604). Cells were then centrifuged at 2000 rpm for 5 minutes and resuspended in CHO-S-SFM (GIBCO cat. #12052) at ˜3×10^6 cells/mL. Cells were stirred for 30 minutes before experiments were started. External recording solution contained (in mM): NaCl (145), KCl (4), CaCl2 (2), MgCl2 (1), HEPES (10) and Glucose (10); pH was adjusted to 7.4 with NaOH and the osmolarity was adjusted to 300-305 mOsM with sucrose if necessary. Internal solution contained (in mM): KCl (125), KF (10), EGTA (5), Na2ATP (5), MgCl2 (3.2), HEPES (5); pH was adjusted to 7.2 with KOH and the osmolarity was adjusted to 298-302 mOsM with sucrose.\nPotassium channel activity was measured on the QPatch HTX (Sophion Bioscience) using QPlates with 48-wells/plate. Each cell was taken as an independent experiment and only one compound was tested per well. Potassium channel activity was elicited by holding at −80 mV and stepping to −30 mV for 2 s followed by a 100 ms pulse to −120 mV.\nSingle Concentration Screen:\nBaseline conditions were obtained by recording 5 sweeps in the external solution only, this was repeated for three applications of the external solution. The effect of test compounds on elicited current was then assessed by recording 5 sweeps in the presence of a 3 μM compound solution. The steady-state current at the end of the 2 s pulse to −30 mV was measured to determine the fold increase from baseline.", "values": [{"smiles": "CC(C)(C)CC(=O)Nc1nc2cc(F)c(C#N)c(F)c2n1C1CCC1", "note": "[Example 356, N-(6-cyano-1-cyclobutyl-5,7-difluoro-1H-benzo[d]imidazol-2-yl)-3,3-dimethylbutanamide]", "Kv7.2/7.3 Activity: increase over baseline in current": "+ (1.2-2.9 (+))"}, {"smiles": "CC(C)(C)CC(=O)Nc1nc2c(OC(F)F)cc(C#N)cc2n1C1(C)CCC1", "note": "[Example 381, N-(6-cyano-4-(difluoromethoxy)-1-(1-methylcyclobutyl)-1H-benzo[d]imidazol-2-yl)-3,3-dimethylbutanamide]", "Kv7.2/7.3 Activity: increase over baseline in current": "++ (3-3.9 (++))"}, {"smiles": "CC(C)(CC(=O)Nc1nc2c(F)cc(C#N)c(F)c2n1C1CCC1)C1CC1", "note": "[Example 464, N-(6-cyano-1-cyclobutyl-4,7-difluoro-1H-benzo[d]imidazol-2-yl)-3-cyclopropyl-3-methylbutanamide]", "Kv7.2/7.3 Activity: increase over baseline in current": "++ (3-3.9 (++))"}, {"smiles": "CC(C)(CC(=O)Nc1nc2ccc(C#N)c(F)c2n1C1CCC1)CC(F)(F)F", "note": "[Example 345, N-(6-cyano-1-cyclobutyl-7-fluoro-1H-benzo[d]imidazol-2-yl)-5,5,5-trifluoro-3,3-dimethylpentanamide]", "Kv7.2/7.3 Activity: increase over baseline in current": "+ (1.2-2.9 (+))"}, {"smiles": "CC(CF)(CF)CC(=O)Nc1nc2c(F)cc(C(C)(C)O)cc2n1C1(C)CCC1", "note": "[Example 480, 4-fluoro-N-(4-fluoro-6-(2-hydroxypropan-2-yl)-1-(1-methylcyclobutyl)-1H-benzo[d]imidazol-2-yl)-3-(fluoromethyl)-3-methylbutanamide]", "Kv7.2/7.3 Activity: increase over baseline in current": "O"}, {"smiles": "CC(C)(C)CC(=O)Nc1nc2cc(F)c(C3(O)CCC3)c(F)c2n1C1CCC1", "note": "[Example 424, N-(1-cyclobutyl-5,7-difluoro-6-(1-hydroxycyclobutyl)-1H-benzo[d]imidazol-2-yl)-3,3-dimethylbutanamide]", "Kv7.2/7.3 Activity: increase over baseline in current": "O"}, {"smiles": "COCc1c(F)ccc2nc(NC(=O)CC(C)(C)C)n(C3CCC3)c12", "note": "[Example 394, N-(1-cyclobutyl-6-fluoro-7-(methoxymethyl)-1H-benzo[d]imidazol-2-yl)-3,3-dimethylbutanamide]", "Kv7.2/7.3 Activity: increase over baseline in current": "O"}, {"smiles": "CC(C)(C)CC(=O)Nc1nc2c(F)cc(OC(F)F)cc2n1C1(C)CCC1", "note": "[Example 459, N-(6-(difluoromethoxy)-4-fluoro-1-(1-methylcyclobutyl)-1H-benzo[d]imidazol-2-yl)-3,3-dimethylbutanamide]", "Kv7.2/7.3 Activity: increase over baseline in current": "+++ (>4 (+++) fold increase over baseline)"}, {"smiles": "CC(C)(O)c1ccc2nc(NC(=O)CC(C)(C)C3CC3)n(CC(F)(F)F)c2c1", "note": "[Example 406, 3-cyclopropyl-N-(6-(2-hydroxypropan-2-yl)-1-(2,2,2-trifluoroethyl)-1H-benzo[d]imidazol-2-yl)-3-methylbutanamide]", "Kv7.2/7.3 Activity: increase over baseline in current": "+++ (>4 (+++) fold increase over baseline)"}, {"smiles": "CC(C)(C)CC(=O)Nc1nc2ccc(N3CC(F)(F)C3)c(F)c2n1C1CCC1", "note": "[Example 475, N-(1-cyclobutyl-6-(3,3-difluoroazetidin-1-yl)-7-fluoro-1H-benzo[d]imidazol-2-yl)-3,3-dimethylbutanamide]", "Kv7.2/7.3 Activity: increase over baseline in current": "++ (3-3.9 (++))"}, {"smiles": "CC(C)(CC(=O)Nc1nc2cc(F)c(OC(F)F)cc2n1C1(C)CCC1)C1CC1", "note": "[Example 367, 3-cyclopropyl-N-(6-(difluoromethoxy)-5-fluoro-1-(1-methylcyclobutyl)-1H-benzo[d]imidazol-2-yl)-3-methylbutanamide]", "Kv7.2/7.3 Activity: increase over baseline in current": "++ (3-3.9 (++))"}, {"smiles": "CC(C)(C)CC(=O)Nc1nc2ccc(F)cc2n1C1CCC1", "note": "[Example 417, N-(1-cyclobutyl-6-fluoro-1H-benzo[d]imidazol-2-yl)-3,3-dimethylbutanamide]", "Kv7.2/7.3 Activity: increase over baseline in current": "++ (3-3.9 (++))"}, {"smiles": "CC(O)(CC(=O)Nc1nc2c(F)cc(C#N)cc2n1C(C)(C)C)c1cccc(F)c1", "note": "(single isomer, unassigned) [Example 339, N-(1-(tert-butyl)-6-cyano-4-fluoro-1H-benzo[d]imidazol-2-yl)-3-(3-fluorophenyl)-3-hydroxybutanamide]", "Kv7.2/7.3 Activity: increase over baseline in current": "O"}, {"smiles": "CC(C)(C)CC(=O)Nc1nc2ccc(C(C)(C)O)cc2n1C12CC(C1)C2", "note": "[Example 425, N-(1-(bicyclo[1.1.1]pentan-1-yl)-6-(2-hydroxypropan-2-yl)-1H-benzo[d]imidazol-2-yl)-3,3-dimethylbutanamide]", "Kv7.2/7.3 Activity: increase over baseline in current": "++ (3-3.9 (++))"}, {"smiles": "CC(C)(O)CC(=O)Nc1nc2cccc(OC(F)(F)F)c2n1C1CCC1", "note": "[Example 380, N-(1-cyclobutyl-7-(trifluoromethoxy)-1H-benzo[d]imidazol-2-yl)-3-hydroxy-3-methylbutanamide]", "Kv7.2/7.3 Activity: increase over baseline in current": "+ (1.2-2.9 (+))"}, {"smiles": "CC(C)(CC(=O)Nc1nc2ccc(C#N)cc2n1C(C)(C)C)C1CC1", "note": "[Example 354, N-(1-(tert-butyl)-6-cyano-1H-benzo[d]imidazol-2-yl)-3-cyclopropyl-3-methylbutanamide]", "Kv7.2/7.3 Activity: increase over baseline in current": "++ (3-3.9 (++))"}, {"smiles": "CC(O)(CC(=O)Nc1nc2cc(F)cc(C#N)c2n1C1(C)CCC1)c1ccccc1", "note": "(single isomer, unassigned) [Example 441, N-(7-cyano-5-fluoro-1-(1-methylcyclobutyl)-1H-benzo[d]imidazol-2-yl)-3-hydroxy-3-phenylbutanamide]", "Kv7.2/7.3 Activity: increase over baseline in current": "++ (3-3.9 (++))"}, {"smiles": "CC1(n2c(NC(=O)CC(O)(c3ccccc3)C(F)(F)F)nc3c(F)cc(OC(F)F)cc32)CCC1", "note": "(stereo not drawn) [Example 409, N-(6-(difluoromethoxy)-4-fluoro-1-(1-methylcyclobutyl)-1H-benzo[d]imidazol-2-yl)-4,4,4-trifluoro-3-hydroxy-3-phenylbutanamide]", "Kv7.2/7.3 Activity: increase over baseline in current": "+ (1.2-2.9 (+))"}, {"smiles": "CC(C)(O)c1ccc2nc(NC(=O)CC3CC(F)(F)C3(F)F)n(C3CCC3)c2c1", "note": "(stereo not drawn) [Example 353, N-(1-cyclobutyl-6-(2-hydroxypropan-2-yl)-1H-benzo[d]imidazol-2-yl)-2-(2,2,3,3-tetrafluorocyclobutyl)acetamide]", "Kv7.2/7.3 Activity: increase over baseline in current": "+ (1.2-2.9 (+))"}, {"smiles": "CC(O)(CC(=O)Nc1nc2ccc(OC(F)F)c(F)c2n1C1(C)CCC1)c1ccccc1", "note": "(single isomer, unassigned) [Example 374, N-(6-(difluoromethoxy)-7-fluoro-1-(1-methylcyclobutyl)-1H-benzo[d]imidazol-2-yl)-3-hydroxy-3-phenylbutanamide]", "Kv7.2/7.3 Activity: increase over baseline in current": "++ (3-3.9 (++))"}, {"smiles": "C[C@H](C(=O)Nc1nc2ccc(C(C)(C)O)cc2n1C1CC(F)(F)C1)C(C)(C)C", "note": "[Example 365, (S)-N-(1-(3,3-difluorocyclobutyl)-6-(2-hydroxypropan-2-yl)-1H-benzo[d]imidazol-2-yl)-2,3,3-trimethylbutanamide]", "Kv7.2/7.3 Activity: increase over baseline in current": "+ (1.2-2.9 (+))"}, {"smiles": "CC(C)(CC(=O)Nc1nc2ccc(C#N)cc2n1C(C)(C)C(F)(F)F)C(F)(F)F", "note": "[Example 484, N-(6-cyano-1-(1,1,1-trifluoro-2-methylpropan-2-yl)-1H-benzo[d]imidazol-2-yl)-4,4,4-trifluoro-3,3-dimethylbutanamide]", "Kv7.2/7.3 Activity: increase over baseline in current": "+ (1.2-2.9 (+))"}, {"smiles": "CC(C)(O)c1ccc2nc(NC(=O)CC(C)(C)C(F)F)n(C3CCC3)c2c1", "note": "[Example 386, N-(1-cyclobutyl-6-(2-hydroxypropan-2-yl)-1H-benzo[d]imidazol-2-yl)-4,4-difluoro-3,3-dimethylbutanamide]", "Kv7.2/7.3 Activity: increase over baseline in current": "+ (1.2-2.9 (+))"}, {"smiles": "CC(O)(CC(=O)Nc1nc2c(F)cc(C#N)cc2n1C(C)(C)C)c1ccccc1F", "note": "(single isomer, unassigned) [Example 348, N-(1-(tert-butyl)-6-cyano-4-fluoro-1H-benzo[d]imidazol-2-yl)-3-(2-fluorophenyl)-3-hydroxybutanamide]", "Kv7.2/7.3 Activity: increase over baseline in current": "O"}]}]}
